Measurements reported in US11878975B2, “Substituted indole compounds useful as TLR inhibitors” (BRISTOL-MYERS SQUIBB COMPANY, priority 2017, dated 2024).

Assays:
Assay type in all cases: cell-based
human TLR7 = molecular target: T1, human TLR7 (Homo sapiens, UniProt Q9NYK1); test: TLR7 inhibition reporter assay (HEK-Blue cells, SEAP reporter, gardiquimod stimulation); conditions: HEK-Blue cells overexpressing human TLR7, SEAP reporter, gardiquimod 7.5 μM
T1 construct: host or cells: HEK-Blue cells
T1 sequence (Q9NYK1 27-1049): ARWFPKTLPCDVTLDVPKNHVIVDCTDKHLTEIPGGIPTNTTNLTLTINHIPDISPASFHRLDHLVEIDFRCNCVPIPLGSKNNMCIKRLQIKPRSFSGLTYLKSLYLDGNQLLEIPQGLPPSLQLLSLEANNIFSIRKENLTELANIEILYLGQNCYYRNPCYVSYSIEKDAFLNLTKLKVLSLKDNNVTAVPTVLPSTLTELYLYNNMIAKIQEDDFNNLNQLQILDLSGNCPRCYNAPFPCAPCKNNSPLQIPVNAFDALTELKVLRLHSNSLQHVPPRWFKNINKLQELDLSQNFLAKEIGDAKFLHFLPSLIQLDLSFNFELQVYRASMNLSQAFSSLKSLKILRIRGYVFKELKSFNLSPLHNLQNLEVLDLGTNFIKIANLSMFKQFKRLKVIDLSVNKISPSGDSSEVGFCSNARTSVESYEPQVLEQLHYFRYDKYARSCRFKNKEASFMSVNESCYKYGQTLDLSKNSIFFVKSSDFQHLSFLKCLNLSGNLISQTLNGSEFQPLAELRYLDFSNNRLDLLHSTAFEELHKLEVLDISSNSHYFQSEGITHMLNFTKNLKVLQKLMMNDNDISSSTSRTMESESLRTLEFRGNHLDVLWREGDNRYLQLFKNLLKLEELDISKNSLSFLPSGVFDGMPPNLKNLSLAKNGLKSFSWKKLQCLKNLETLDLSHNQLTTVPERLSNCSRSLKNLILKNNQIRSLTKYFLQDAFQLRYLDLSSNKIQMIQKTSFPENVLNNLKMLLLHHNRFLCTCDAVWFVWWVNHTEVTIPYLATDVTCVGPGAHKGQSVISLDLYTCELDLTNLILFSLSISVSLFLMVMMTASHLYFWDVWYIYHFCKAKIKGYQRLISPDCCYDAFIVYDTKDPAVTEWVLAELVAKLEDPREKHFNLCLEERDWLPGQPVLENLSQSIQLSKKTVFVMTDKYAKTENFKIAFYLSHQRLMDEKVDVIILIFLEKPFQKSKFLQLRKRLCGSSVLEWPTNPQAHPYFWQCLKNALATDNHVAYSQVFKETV
Procedure, shortened: (§1)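 HEK-Blue cells with NF-κB/AP-1-driven SEAP reporter, pre-treated 30 min at room temperature with compound (0.05 nM-50 μM). Stimulants: gardiquimod 7.5 μM (TLR7), R848 15.9 μM (TLR8) or ODN2006 5 nM (TLR9). SEAP measured after 22 h at 37° C.; percent inhibition versus agonist-plus-DMSO and known-inhibitor wells.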

human TLR9 = molecular target: T2, human TLR9 (Homo sapiens, UniProt Q9NR96); test: TLR9 inhibition reporter assay (HEK-Blue cells, SEAP reporter, ODN2006 stimulation); conditions: HEK-Blue cells overexpressing human TLR9, SEAP reporter, ODN2006 5 nM
T2 construct: host or cells: HEK-Blue cells
T2 sequence (Q9NR96 26-1032): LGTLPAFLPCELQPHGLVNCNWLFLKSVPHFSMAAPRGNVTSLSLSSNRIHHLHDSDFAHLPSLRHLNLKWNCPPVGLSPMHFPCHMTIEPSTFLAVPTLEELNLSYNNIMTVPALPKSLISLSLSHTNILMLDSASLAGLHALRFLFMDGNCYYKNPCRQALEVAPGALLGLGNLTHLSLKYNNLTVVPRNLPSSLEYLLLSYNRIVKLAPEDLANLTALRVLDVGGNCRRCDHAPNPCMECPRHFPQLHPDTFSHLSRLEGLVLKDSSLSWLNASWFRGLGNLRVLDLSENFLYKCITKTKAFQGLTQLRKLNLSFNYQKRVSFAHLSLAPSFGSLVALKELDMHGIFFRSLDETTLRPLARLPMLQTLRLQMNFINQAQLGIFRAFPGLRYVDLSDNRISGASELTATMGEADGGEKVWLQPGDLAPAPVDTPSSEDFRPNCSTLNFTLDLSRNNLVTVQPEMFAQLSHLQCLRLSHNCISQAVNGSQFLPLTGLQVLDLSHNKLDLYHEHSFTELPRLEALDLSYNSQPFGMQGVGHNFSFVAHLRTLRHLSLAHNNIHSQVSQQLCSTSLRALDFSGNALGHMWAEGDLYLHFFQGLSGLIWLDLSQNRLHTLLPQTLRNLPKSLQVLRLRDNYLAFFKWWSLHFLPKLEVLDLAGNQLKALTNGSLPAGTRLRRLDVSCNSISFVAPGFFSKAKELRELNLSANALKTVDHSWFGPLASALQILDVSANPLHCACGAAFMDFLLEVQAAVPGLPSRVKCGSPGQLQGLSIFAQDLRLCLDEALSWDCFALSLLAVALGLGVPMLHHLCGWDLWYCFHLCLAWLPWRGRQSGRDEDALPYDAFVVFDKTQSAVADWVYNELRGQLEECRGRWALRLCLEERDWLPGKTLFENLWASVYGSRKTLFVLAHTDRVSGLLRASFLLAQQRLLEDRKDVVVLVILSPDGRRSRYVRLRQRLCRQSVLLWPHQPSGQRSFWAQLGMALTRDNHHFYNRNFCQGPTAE
Procedure, shortened: as §1

human TLR8 = molecular target: T3, human TLR8 (Homo sapiens, UniProt Q9NR97); test: TLR8 inhibition reporter assay (HEK-Blue cells, SEAP reporter, R848 stimulation); conditions: HEK-Blue cells overexpressing human TLR8, SEAP reporter, R848 15.9 μM
T3 construct: host or cells: HEK-Blue cells
T3 sequence (Q9NR97 27-1041): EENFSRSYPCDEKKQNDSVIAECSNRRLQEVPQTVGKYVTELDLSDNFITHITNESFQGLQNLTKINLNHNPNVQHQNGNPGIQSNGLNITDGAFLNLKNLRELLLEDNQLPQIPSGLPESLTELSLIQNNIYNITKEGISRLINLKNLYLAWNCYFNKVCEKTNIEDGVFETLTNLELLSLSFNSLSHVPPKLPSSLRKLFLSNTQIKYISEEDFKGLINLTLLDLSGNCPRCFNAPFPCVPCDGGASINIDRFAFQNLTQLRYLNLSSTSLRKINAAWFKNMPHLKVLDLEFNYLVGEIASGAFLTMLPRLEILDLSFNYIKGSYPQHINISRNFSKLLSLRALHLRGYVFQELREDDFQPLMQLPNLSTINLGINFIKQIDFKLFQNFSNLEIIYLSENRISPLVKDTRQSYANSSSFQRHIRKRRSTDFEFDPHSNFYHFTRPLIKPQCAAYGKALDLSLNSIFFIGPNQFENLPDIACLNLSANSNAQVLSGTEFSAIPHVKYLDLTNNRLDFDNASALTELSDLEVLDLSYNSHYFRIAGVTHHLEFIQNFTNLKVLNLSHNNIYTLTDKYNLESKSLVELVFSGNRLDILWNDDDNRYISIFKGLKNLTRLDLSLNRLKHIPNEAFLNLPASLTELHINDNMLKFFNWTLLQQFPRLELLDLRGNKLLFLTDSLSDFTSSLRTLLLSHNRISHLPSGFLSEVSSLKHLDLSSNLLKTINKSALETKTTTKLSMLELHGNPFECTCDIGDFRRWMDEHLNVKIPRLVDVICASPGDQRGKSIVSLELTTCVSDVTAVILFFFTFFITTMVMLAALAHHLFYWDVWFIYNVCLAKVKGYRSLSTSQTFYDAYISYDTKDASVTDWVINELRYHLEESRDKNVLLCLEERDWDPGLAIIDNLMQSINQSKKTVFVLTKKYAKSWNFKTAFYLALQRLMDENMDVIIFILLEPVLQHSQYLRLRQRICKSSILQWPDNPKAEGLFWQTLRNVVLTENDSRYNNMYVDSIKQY
Procedure, shortened: as §1

| IC50 (human TLR7) | IC50 (human TLR9) | IC50 (human TLR8) | Structure (SMILES) |
| --- | --- | --- | --- |
| 15 nM | 699 nM | 80 nM | Cc1cc(-c2[nH]c3ccc(C4CCCN(C(=O)[C@@H]5CCN5)C4)cc3c2C(C)C)cc(C)n1 (stereo partly drawn) [Example 218] |
| 24 nM | 43500 nM | 97 nM | COCCC(=O)N1CCCC(c2ccc3[nH]c(-c4cc(C)nc(C)c4)c(C(C)C)c3c2)C1 (stereo not drawn) [Example 207] |
| 9 nM | > 50000 nM | 26 nM | CNC(=O)CN1CCOC(c2ccc3[nH]c(-c4cc(OC)c5ncnn5c4)c(C(C)C)c3c2)C1 (stereo not drawn) [Example 315] |
| 0.22 nM | 1300 nM | 0.62 nM | CNC(=O)CNC1CCC(c2ccc3[nH]c(-c4cc(OC)c5ncnn5c4)c(C(C)C)c3c2)CC1 (stereo not drawn) [Example 167] |
| 19 nM | 157 nM | 5.2 nM | CNCCN1CCCC(c2ccc3[nH]c(-c4ccnc(C)c4)c(C(C)C)c3c2)C1 (stereo not drawn) [Example 255] |
| 4 nM | 12200 nM | 35 nM | Cc1cc(-c2[nH]c3ccc(C4CCCN(C(=O)C5(C)CC5)C4)cc3c2C(C)C)cc(C)n1 (stereo not drawn) [Example 202] |
| 0.56 nM | 3630 nM | 4.7 nM | CCN(C)CC(=O)N1CCOC(c2ccc3[nH]c(-c4cc(OC)c5ncnn5c4)c(C(C)C)c3c2)C1 (stereo not drawn) [Example 359, 2-(ethyl(methyl)amino)-1-(2-(3-isopropyl-2-(8-methoxy-[1,2,4]triazolo[1,5-a]pyridin-6-yl)-1H-indol-5-yl)morpholino)ethanone] |
| 242 nM | 46500 nM | 737 nM | COc1ccc(-c2[nH]c3ccc(C4CCC(O)CC4)cc3c2C(C)C)cc1OC (stereo not drawn) [Example 452] |
| 2 nM | 4120 nM | 7.4 nM | Cc1cc(-c2[nH]c3ccc(C4CCC(N5CCOCC5)CC4)cc3c2C(C)C)cn2ncnc12 (stereo not drawn) [Example 103] |
| 0.75 nM | 2510 nM | 1.2 nM | COc1cc(-c2[nH]c3ccc(C4CCC(N5C[C@@H](C)O[C@@H](C)C5)CC4)cc3c2C(C)C)cn2ncnc12 (stereo partly drawn) [Example 40] |
| 6 nM | 5120 nM | 4.9 nM | Cc1c(-c2[nH]c3ccc(C4CN(CC(=O)N(C)C)C4)cc3c2C(C)C)cn2ncnc2c1C [Example 556] |
| 280 nM | > 50000 nM | 219 nM | Cc1cc(-c2[nH]c3ccc(C4CCC(N5CCCC(F)(F)C5)CC4)cc3c2C(C)C)cn(C)c1=O (stereo not drawn) [Example 468] |
| 15 nM | > 50000 nM | 57 nM | CNC(=O)CN1CCOC(c2ccc3[nH]c(-c4cc(OC)c5ncnn5c4)c(C(C)C)c3c2)C1 (stereo not drawn) [Example 310] |
| 68 nM | 622 nM | 149 nM | COc1ccc(CNC2CCC(c3ccc4[nH]c(-c5cc(C)nc(C)c5)c(C(C)C)c4c3)CC2)cc1 (single isomer, unassigned) [Example 50] |
| 0.23 nM | 1320 nM | 0.58 nM | CNC1CCC(c2ccc3[nH]c(-c4cn5ncnc5c(C)c4C)c(C(C)C)c3c2)CC1 (stereo not drawn) [Example 89] |
| 10 nM | 530 nM | 10 nM | Cc1cc(-c2[nH]c3ccc(C4CN(C(=O)CN(C)C)CCO4)cc3c2C(C)C)cc(C)n1 (stereo not drawn) [Example 336] |
| 161 nM | 7050 nM | 66 nM | Cc1c(-c2[nH]c3ccc(C4CCCNC4)cc3c2C(C)C)ccc2ncnn12 (stereo not drawn) [Example 188] |
| 15 nM | 13000 nM | 2.3 nM | Cc1cc(-c2[nH]c3ccc(CCN4CC[C@H](F)C4)cc3c2C(C)C)cn(C)c1=O [Example 408] |
| 1270 nM | 38200 nM | 3130 nM | Cc1c(-c2[nH]c3ccc(C4CC5CN(C6CCOCC6)CC5C4)cc3c2C(C)C)cn2cnnc2c1C (stereo not drawn) [Example 563] |
| 9 nM | 8180 nM | 12 nM | Cc1c(-c2[nH]c3ccc(C4CCC(NC(=O)CN(C)C)CC4)cc3c2C(C)C)cn2ncnc2c1C (stereo not drawn) [Example 124] |
| 2 nM | 5970 nM | 5 nM | CNCC(=O)N1CCOC(c2ccc3[nH]c(-c4cn5ncnc5c(C)c4C)c(C(C)C)c3c2)C1 (stereo not drawn) [Example 341] |
| 95 nM | > 50000 nM | 31 nM | Cc1cc(-c2[nH]c3ccc(C4CN(CCS(C)(=O)=O)CCO4)cc3c2C(C)C)cc(C)n1 (stereo not drawn) [Example 353] |
| 34 nM | > 50000 nM | 49 nM | Cc1c(-c2[nH]c3ccc(C4CN(CC(=O)N(C)C)C(C)(C)CO4)cc3c2C(C)C)cn2ncnc2c1C (stereo not drawn) [Example 386] |
| 6 nM | 21700 nM | 183 nM | Cc1cc(-c2[nH]c3ccc(C4CCC5(CC4)NC(=O)NC5=O)cc3c2C(C)C)cc(C)n1 (stereo not drawn) [Example 366, 8-(2-(2,6-dimethylpyridin-4-yl)-3-isopropyl-1H-indol-5-yl)-1,3-diazaspiro[4.5]decane-2,4-dione] |
| 2 nM | 6630 nM | 0.61 nM | Cc1cc(-c2[nH]c3ccc(C4CN(C)CCO4)cc3c2C(C)C)cn2ncnc12 (stereo not drawn) [Example 297] |
